From patent publication US20240016881A1, “Coronavirus Therapy” (priority 2020, published 2024)
Several values for one entry are separate records, joined by “and”; a condition that tells them apart may be missing. Equal entries are not always repeated. Where no end group is shown, it is not given here.

Legend:
[1] = tested on: isolated rat islet cultures; test: Glucagon levels secreted from isolated rat islet cultures, medium plus NDX-90 vs medium alone; format: cell-based; details: for Glucagon level (pg/ml) Medium plus NDX-90: NDX-90 1 μg/ml, 11 mmol/L glucose; for Percentage reduction of glucagon secretion: vs medium alone
Protocol: Isolated islets were suspended in RPMI 1640 containing 11 mmol/L (200 mg/dL) glucose and 10% FCS. The glucose concentration simulates a diabetic environment. NDX-90 was dissolved in the culture medium and added to the appropriate wells at a final concentration of 1 μg/ml. After the specified incubation times, samples were removed for glucagon measurements using Quantikine ELISA Immunoassay (R&D Systems).
The inventor measured glucagon levels secreted from isolated rat islet cultures, to determine whether NDX-90 was capable of reducing glucagon levels.

[2] = Fasting plasma glucagon in subjects with Type 2 diabetes treated with NDX-90 peptide; format: in vivo, human
Text: The inventor then measured the effect of NDX-90 peptide treatment over several months on fasting plasma glucagon levels in subjects with Type 2 diabetes.

[3] = ELISA binding of NDX-90 peptide to cardiolipin-coated microtitre plate
Text: Each mean and standard deviation is for three observations.

[4] = tested on: buccal tissue culture inserts; test: Buccal tissue permeability (cell permeation, HPLC peak area of supernatant); format: in vitro ADME
Protocol: Buccal tissue culture inserts were transferred from the original tissue culture 24-well plates (maintained at 4° C. in sealed bags containing 5% CO2) under sterile conditions into wells of a fresh 24-well plate containing 1.0 ml serum free medium pre-warmed to 37° C. The plate was incubated in a humidified incubator at 37° C. in a 5% CO2 atmosphere for one hour as a pre-equilibration procedure prior to dosing. After removal from the incubator, any culture medium over the surface of the tissue was carefully removed and replaced with 40 μL of appropriately diluted peptide solution in serum free culture medium. The plate was incubated for further 30 minutes at 37° C. in a 5% CO2 atmosphere. The plate was removed from the incubator and supernatant samples were taken and analysed by HPLC. The main peak areas of the supernatants were compared to those of the pre-incubation stock samples.
The inventor next measured buccal tissue permeability of NDX-90 peptide, to determine its uptake.

soluble ACE2 = test: Soluble ACE2 ELISA in cultures of human islet cells from Type 2 diabetes tissue donors; format: cell-based; details: for % reduction soluble ACE2 100-(T/Cx100): vs control cultures
Protocol: The inventor next measured the effect of NDX-90 peptide on soluble ACE2 levels in cultures of human islet cells from Type 2 diabetes tissue donors. Human pancreatic islet cells were cultured in 24-well tissue culture plates. Two series of cultures were set up. NDX-90 peptide solution was added to one series and an equivalent amount of culture medium was added to the second series. Supernatant samples were removed from the test and control cultures at 4, 24 and 48 hours after addition of the treatment. Supernatant samples were removed only once from each test and control well for each time point. The samples were tested for soluble ACE2 by the use of a commercial ELISA kit according to the manufacturer's instructions.

QQYNSYPLT (also: dimer) [NDX-90, b142 says NDX-90 is a dimer]
Difference (pg/ml) medium alone vs medium plus NDX-90 ([1]; 4 hours): 203.0 pg/mL
Glucagon level (pg/ml) Medium plus NDX-90 ([1]; 4 hours): 419.3 ± 2.5 pg/mL
Percentage reduction of glucagon secretion ([1]; 4 hours): 32% and 32.4%
Difference (pg/ml) medium alone vs medium plus NDX-90 ([1]; 24 hours): 102.9 pg/mL
Glucagon level (pg/ml) Medium plus NDX-90 ([1]; 24 hours): 149.6 ± 6.7 pg/mL
Percentage reduction of glucagon secretion ([1]; 24 hours): 40.9%
Glucagon level (pg/ml) Medium plus NDX-90 ([1]; 48 hours): 63.4 ± 1.3 pg/mL
Percentage reduction of glucagon secretion ([1]; 48 hours): 0%
Improvement in fasting glucagon towards normality ([2]; 9.61 pg/ml relative to literature excess of 12.2 pg/ml in Type 2 diabetes vs nondiabetic controls): 78.8%
Difference baseline vs treated fasting plasma glucagon ([2]; day 1 vs mean of days 43, 99 and 113, P = 0.009, listed as NDX-90 peptide): 9.61 pg/mL
Baseline ± sd fasting plasma glucagon ([2]; mean baseline on day 1, n = 23, Type 2 diabetes): 103 ± 38.3 pg/mL
Treated ± sd fasting plasma glucagon ([2]; mean of measurements on days 43, 99 and 113, n = 23, Type 2 diabetes): 93.47 ± 32.3 pg/mL
Binding to cardiolipin [3]: has the capacity to bind to cardiolipin
Ratio Test/Control (cardiolipin / alcohol optical density) [3]: 2.23
Optical density reading in ELISA, cardiolipin-coated plate ([3]; mean and standard deviation for three observations): 0.254 ± 0.012
Transmissibility across / uptake by buccal tissue [4]: efficient uptake
Transmissibility % ([4]; Table 5 screening, 30 minutes): 94.1%
Peak Area by HPLC of Peptides in solution Pre-overlay ([4]; Table 5 screening, stock before incubation): 4142
Peak Area by HPLC of Peptides in solution Post-overlay ([4]; Table 5 screening, supernatant after 30 minutes at 37° C.): 243
Peak Area by HPLC R1 ([4]; Table 6, replicate culture 1): 276
Transmissibility T % (R1) ([4]; Table 6, replicate culture 1): 93.3%
Peak Area by HPLC R3 ([4]; Table 6, replicate culture 3): 0
Transmissibility T % (R3) ([4]; Table 6, replicate culture 3): 100%
Peak Area by HPLC Pre-overlay ([4]; Table 6 triplicate cultures, stock): 4142
% reduction soluble ACE2 100-(T/Cx100) (soluble ACE2; 4 hours): 5.3%
% reduction soluble ACE2 100-(T/Cx100) (soluble ACE2; 4 hours, listed as NDX-90 Peptide): 5.3%
% reduction soluble ACE2 100-(T/Cx100) (soluble ACE2; 24 hours): 6.25%
% reduction soluble ACE2 100-(T/Cx100) (soluble ACE2; 24 hours, listed as NDX-90 Peptide): 6.25%
Reduction of soluble ACE2 (soluble ACE2; 48 hours): No further reduction
